In brackets after ≈: the same amount, converted by molar mass.
Key:
Assay type in all cases: functional
Trichoderma viride = assay: Antimicrobial activity against Hypocrea rufa ATCC 52440 assessed as growth inhibition by broth dilution method
Staphylococcus aureus = assay: Antimicrobial activity against Staphylococcus aureus ATCC 25923 assessed as growth inhibition by broth dilution method
Trichophyton longifusum = assay: Antimicrobial activity against Trichophyton longifusum ATCC 22397 assessed as growth inhibition by broth dilution method
Micrococcus luteus = assay: Antimicrobial activity against Micrococcus luteus ATCC 4698 assessed as growth inhibition by broth dilution method
[1] = tested on: Staphylococcus epidermidis; assay: Antimicrobial activity against Staphylococcus epidermidis ATCC 12228 assessed as growth inhibition by broth dilution method
Escherichia coli = assay: Antimicrobial activity against Escherichia coli ATCC 25922 assessed as growth inhibition by broth dilution method
Klebsiella pneumoniae = assay: Antimicrobial activity against Klebsiella pneumoniae ATCC 13883 assessed as growth inhibition by broth dilution method
Bacillus pumilus = assay: Antimicrobial activity against Bacillus pumilus ATCC 14884 assessed as growth inhibition by broth dilution method
Salmonella typhi = assay: Antimicrobial activity against Salmonella enterica subsp. enterica serovar Typhi ATCC 19430 assessed as growth inhibition by broth dilution method
Proteus vulgaris = assay: Antimicrobial activity against Proteus vulgaris ATCC 13315 assessed as growth inhibition by broth dilution method
Bacillus subtilis = assay: Antimicrobial activity against Bacillus subtilis ATCC 6633 assessed as growth inhibition by broth dilution method
Fusarium solani = assay: Antimicrobial activity against Fusarium solani ATCC 38136 assessed as growth inhibition by broth dilution method
Aspergillus fumigatus = assay: Antimicrobial activity against Aspergillus fumigatus assessed as growth inhibition by broth dilution method
Staphylococcus hominis = assay: Antimicrobial activity against Staphylococcus hominis ATCC 27844 assessed as growth inhibition by broth dilution method
Aspergillus flavus = assay: Antimicrobial activity against Aspergillus flavus ATCC 15517 assessed as growth inhibition by broth dilution method
Rhizoctonia solani = assay: Antimicrobial activity against Rhizoctonia solani ATCC 76131 assessed as growth inhibition by broth dilution method
Bacillus cereus = assay: Antimicrobial activity against Bacillus cereus ATCC 11778 assessed as growth inhibition by broth dilution method
Alternaria alternata = assay: Antimicrobial activity against Alternaria alternata ATCC 66868 assessed as growth inhibition by broth dilution method
Aspergillus niger = assay: Antimicrobial activity against Aspergillus niger ATCC 9142 assessed as growth inhibition by broth dilution method
Aspergillus awamori = assay: Antimicrobial activity against Aspergillus awamori ATCC 22342 assessed as growth inhibition by broth dilution method
Pseudomonas aeruginosa = assay: Antimicrobial activity against Pseudomonas aeruginosa ATCC 10145 assessed as growth inhibition by broth dilution method
Microsporum canis = assay: Antimicrobial activity against Arthroderma otae ATCC 11622 assessed as growth inhibition by broth dilution method
Proteus mirabilis = assay: Antimicrobial activity against Proteus mirabilis ATCC 49565 assessed as growth inhibition by broth dilution method
Candida albicans = assay: Antimicrobial activity against Candida albicans ATCC 10231 assessed as growth inhibition by broth dilution method

SMILES: COc1ccc(C2C(Cl)C(=O)N2CCN2CCN(C(=O)CCl)CC2)cc1O (stereo not given)
- MIC (Trichoderma viride): 18.8 µg/mL (≈ 45 µM)
- MIC (Staphylococcus aureus): 9.37 µg/mL (≈ 22.5 µM)
- MIC (Trichophyton longifusum): 9.73 µg/mL (≈ 23.4 µM)
- MIC (Micrococcus luteus): 4.68 µg/mL (≈ 11.2 µM)
- MIC [1]: 9.37 µg/mL (≈ 22.5 µM)
- MIC (Escherichia coli): 9.37 µg/mL (≈ 22.5 µM)
- MIC (Klebsiella pneumoniae): 9.37 µg/mL (≈ 22.5 µM)
- MIC (Bacillus pumilus): 9.37 µg/mL (≈ 22.5 µM)
- MIC (Salmonella typhi): 4.68 µg/mL (≈ 11.2 µM)
- MIC (Proteus vulgaris): 9.37 µg/mL (≈ 22.5 µM)
- MIC (Bacillus subtilis): 4.68 µg/mL (≈ 11.2 µM)
- MIC (Fusarium solani): 18.8 µg/mL (≈ 45 µM)
- MIC (Aspergillus fumigatus): 18.8 µg/mL (≈ 45 µM)
- MIC (Staphylococcus hominis): 9.37 µg/mL (≈ 22.5 µM)
- MIC (Aspergillus flavus): 18.8 µg/mL (≈ 45 µM)
- MIC (Rhizoctonia solani): 18.8 µg/mL (≈ 45 µM)
- MIC (Bacillus cereus): 9.37 µg/mL (≈ 22.5 µM)
- MIC (Alternaria alternata): 9.73 µg/mL (≈ 23.4 µM)
- MIC (Aspergillus niger): 18.8 µg/mL (≈ 45 µM)
- MIC (Aspergillus awamori): 18.8 µg/mL (≈ 45 µM)
- MIC (Pseudomonas aeruginosa): 9.37 µg/mL (≈ 22.5 µM)
- MIC (Microsporum canis): 18.8 µg/mL (≈ 45 µM)
- MIC (Proteus mirabilis): 9.37 µg/mL (≈ 22.5 µM)
- MIC (Candida albicans): 18.8 µg/mL (≈ 45 µM)

SMILES: O=C(CCl)N1CCN(CCN2C(=O)C(Cl)C2c2ccccc2)CC1 (stereo not given)
- MIC (Trichoderma viride): 75 µg/mL (≈ 203 µM)
- MIC (Staphylococcus aureus): 18.8 µg/mL (≈ 50.6 µM)
- MIC (Trichophyton longifusum): 37.5 µg/mL (≈ 101 µM)
- MIC (Micrococcus luteus): 18.8 µg/mL (≈ 50.6 µM)
- MIC [1]: 37.5 µg/mL (≈ 101 µM)
- MIC (Escherichia coli): 37.5 µg/mL (≈ 101 µM)
- MIC (Klebsiella pneumoniae): 37.5 µg/mL (≈ 101 µM)
- MIC (Bacillus pumilus): 18.8 µg/mL (≈ 50.6 µM)
- MIC (Salmonella typhi): 37.5 µg/mL (≈ 101 µM)
- MIC (Proteus vulgaris): 37.5 µg/mL (≈ 101 µM)
- MIC (Bacillus subtilis): 75 µg/mL (≈ 203 µM)
- MIC (Fusarium solani): 75 µg/mL (≈ 203 µM)
- MIC (Aspergillus fumigatus): 75 µg/mL (≈ 203 µM)
- MIC (Staphylococcus hominis): 37.5 µg/mL (≈ 101 µM)
- MIC (Aspergillus flavus): 75 µg/mL (≈ 203 µM)
- MIC (Rhizoctonia solani): 75 µg/mL (≈ 203 µM)
- MIC (Bacillus cereus): 18.8 µg/mL (≈ 50.6 µM)
- MIC (Alternaria alternata): 37.5 µg/mL (≈ 101 µM)
- MIC (Aspergillus niger): 75 µg/mL (≈ 203 µM)
- MIC (Aspergillus awamori): 75 µg/mL (≈ 203 µM)
- MIC (Pseudomonas aeruginosa): 18.8 µg/mL (≈ 50.6 µM)
- MIC (Microsporum canis): 75 µg/mL (≈ 203 µM)
- MIC (Proteus mirabilis): 18.8 µg/mL (≈ 50.6 µM)
- MIC (Candida albicans): 75 µg/mL (≈ 203 µM)

SMILES: O=C(O)c1cn(C2CC2)c2cc(N3CCNCC3)c(F)cc2c1=O [CIPROFLOXACIN]
- MIC (Staphylococcus aureus): 2.34 µg/mL (≈ 7.06 µM)
- MIC (Micrococcus luteus): 2.34 µg/mL (≈ 7.06 µM)
- MIC [1]: 2.34 µg/mL (≈ 7.06 µM)
- MIC (Escherichia coli): 2.34 µg/mL (≈ 7.06 µM)
- MIC (Klebsiella pneumoniae): 2.34 µg/mL (≈ 7.06 µM)
- MIC (Bacillus pumilus): 2.34 µg/mL (≈ 7.06 µM)
- MIC (Salmonella typhi): 2.34 µg/mL (≈ 7.06 µM)
- MIC (Proteus vulgaris): 2.34 µg/mL (≈ 7.06 µM)
- MIC (Bacillus subtilis): 2.34 µg/mL (≈ 7.06 µM)
- MIC (Staphylococcus hominis): 2.34 µg/mL (≈ 7.06 µM)
- MIC (Bacillus cereus): 2.34 µg/mL (≈ 7.06 µM)
- MIC (Pseudomonas aeruginosa): 2.34 µg/mL (≈ 7.06 µM)
- MIC (Proteus mirabilis): 2.34 µg/mL (≈ 7.06 µM)

SMILES: O=C1CSC(c2cccc(O)c2)N1CCN1CCNCC1 (stereo not given)
- MIC (Trichoderma viride): 37.5 µg/mL (≈ 122 µM)
- MIC (Staphylococcus aureus): 37.5 µg/mL (≈ 122 µM)
- MIC (Trichophyton longifusum): 37.5 µg/mL (≈ 122 µM)
- MIC (Micrococcus luteus): 18.8 µg/mL (≈ 61 µM)
- MIC [1]: 18.8 µg/mL (≈ 61 µM)
- MIC (Escherichia coli): 37.5 µg/mL (≈ 122 µM)
- MIC (Klebsiella pneumoniae): 37.5 µg/mL (≈ 122 µM)
- MIC (Bacillus pumilus): 37.5 µg/mL (≈ 122 µM)
- MIC (Salmonella typhi): 18.8 µg/mL (≈ 61 µM)
- MIC (Proteus vulgaris): 37.5 µg/mL (≈ 122 µM)
- MIC (Bacillus subtilis): 37.5 µg/mL (≈ 122 µM)
- MIC (Fusarium solani): 75 µg/mL (≈ 244 µM)
- MIC (Aspergillus fumigatus): 37.5 µg/mL (≈ 122 µM)
- MIC (Staphylococcus hominis): 37.5 µg/mL (≈ 122 µM)
- MIC (Aspergillus flavus): 37.5 µg/mL (≈ 122 µM)
- MIC (Rhizoctonia solani): 37.5 µg/mL (≈ 122 µM)
- MIC (Bacillus cereus): 18.8 µg/mL (≈ 61 µM)
- MIC (Alternaria alternata): 75 µg/mL (≈ 244 µM)
- MIC (Aspergillus niger): 37.5 µg/mL (≈ 122 µM)
- MIC (Aspergillus awamori): 37.5 µg/mL (≈ 122 µM)
- MIC (Pseudomonas aeruginosa): 37.5 µg/mL (≈ 122 µM)
- MIC (Microsporum canis): 37.5 µg/mL (≈ 122 µM)
- MIC (Proteus mirabilis): 18.8 µg/mL (≈ 61 µM)
- MIC (Candida albicans): 37.5 µg/mL (≈ 122 µM)

SMILES: O=C1CSC(c2ccccc2)N1CCN1CCNCC1 (stereo not given)
- MIC (Trichoderma viride): 75 µg/mL (≈ 257 µM)
- MIC (Staphylococcus aureus): 37.5 µg/mL (≈ 129 µM)
- MIC (Trichophyton longifusum): 75 µg/mL (≈ 257 µM)
- MIC (Micrococcus luteus): 75 µg/mL (≈ 257 µM)
- MIC [1]: 75 µg/mL (≈ 257 µM)
- MIC (Escherichia coli): 37.5 µg/mL (≈ 129 µM)
- MIC (Klebsiella pneumoniae): 37.5 µg/mL (≈ 129 µM)
- MIC (Bacillus pumilus): 75 µg/mL (≈ 257 µM)
- MIC (Salmonella typhi): 18.8 µg/mL (≈ 64.3 µM)
- MIC (Proteus vulgaris): 18.8 µg/mL (≈ 64.3 µM)
- MIC (Bacillus subtilis): 37.5 µg/mL (≈ 129 µM)
- MIC (Fusarium solani): 37.5 µg/mL (≈ 129 µM)
- MIC (Aspergillus fumigatus): 37.5 µg/mL (≈ 129 µM)
- MIC (Staphylococcus hominis): 37.5 µg/mL (≈ 129 µM)
- MIC (Aspergillus flavus): 75 µg/mL (≈ 257 µM)
- MIC (Rhizoctonia solani): 37.5 µg/mL (≈ 129 µM)
- MIC (Bacillus cereus): 37.5 µg/mL (≈ 129 µM)
- MIC (Alternaria alternata): 75 µg/mL (≈ 257 µM)
- MIC (Aspergillus niger): 75 µg/mL (≈ 257 µM)
- MIC (Aspergillus awamori): 75 µg/mL (≈ 257 µM)
- MIC (Pseudomonas aeruginosa): 37.5 µg/mL (≈ 129 µM)
- MIC (Microsporum canis): 37.5 µg/mL (≈ 129 µM)
- MIC (Proteus mirabilis): 37.5 µg/mL (≈ 129 µM)
- MIC (Candida albicans): 37.5 µg/mL (≈ 129 µM)

SMILES: Clc1ccccc1C(c1ccccc1)(c1ccccc1)n1ccnc1 [CLOTRIMAZOLE]
- MIC (Trichoderma viride): 2.34 µg/mL (≈ 6.79 µM)
- MIC (Trichophyton longifusum): 4.68 µg/mL (≈ 13.6 µM)
- MIC (Fusarium solani): 4.68 µg/mL (≈ 13.6 µM)
- MIC (Aspergillus fumigatus): 4.68 µg/mL (≈ 13.6 µM)
- MIC (Aspergillus flavus): 2.34 µg/mL (≈ 6.79 µM)
- MIC (Rhizoctonia solani): 2.34 µg/mL (≈ 6.79 µM)
- MIC (Alternaria alternata): 1.17 µg/mL (≈ 3.39 µM)
- MIC (Aspergillus niger): 2.34 µg/mL (≈ 6.79 µM)
- MIC (Aspergillus awamori): 4.68 µg/mL (≈ 13.6 µM)
- MIC (Microsporum canis): 4.68 µg/mL (≈ 13.6 µM)
- MIC (Candida albicans): 2.34 µg/mL (≈ 6.79 µM)
